{"source": "paper PMC9117128", "about": "“Phage anti-CBASS and anti-Pycsar nucleases subvert bacterial immunity” (Nature, 2022)", "key": {"YhfI": {"target": "T1, YhfI (Bacillus subtilis, UniProt O07607)", "T1 construct": "recombinant, homodimer", "T1 sequence (O07607 whole entry)": "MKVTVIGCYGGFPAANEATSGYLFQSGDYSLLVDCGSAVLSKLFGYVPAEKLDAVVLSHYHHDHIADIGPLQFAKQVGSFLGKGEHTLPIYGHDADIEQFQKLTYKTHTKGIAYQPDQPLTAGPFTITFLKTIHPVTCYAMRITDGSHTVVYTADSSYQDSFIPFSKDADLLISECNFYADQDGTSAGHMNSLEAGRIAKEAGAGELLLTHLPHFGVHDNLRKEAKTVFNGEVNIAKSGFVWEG", "test": "HPLC cleavage assay", "assay_type": "biochemical", "details": "Mg2+, Mn2+, pH 7.5, 37 °C"}, "PycTIR": {"target": "T2, PycTIR (Burkholderia cepacia, UniProt A0A0J5WTU0)", "T2 sequence (A0A0J5WTU0 1-303)": "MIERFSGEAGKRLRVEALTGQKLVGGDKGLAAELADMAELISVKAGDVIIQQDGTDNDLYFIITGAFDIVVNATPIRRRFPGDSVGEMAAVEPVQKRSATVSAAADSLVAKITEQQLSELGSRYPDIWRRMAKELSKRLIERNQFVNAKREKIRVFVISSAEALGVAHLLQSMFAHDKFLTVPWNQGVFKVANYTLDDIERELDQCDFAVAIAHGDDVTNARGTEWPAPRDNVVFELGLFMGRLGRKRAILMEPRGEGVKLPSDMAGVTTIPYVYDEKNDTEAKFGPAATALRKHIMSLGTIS", "test": "fluorescent NADase activation assay", "assay_type": "biochemical", "details": "500 µM ε-NAD, pH 7.5, room temperature"}, "[1]": {"target": "the molecule itself", "test": "crystal structure; hanging-drop crystals grown at 18 °C from purified protein (10 mg/ml, 20 mM HEPES-KOH pH 7.5, 80 mM KCl, 1 mM TCEP); homodimer seen in the crystal structures"}}}
{"molecule": "Nc1nc2c(ncn2[C@@H]2O[C@@H]3COP(=O)(O)O[C@H]3[C@H]2O)c(=O)[nH]1", "note": "[cGMP]", "values": [{"measurement": "HPLC cleavage assay", "setting": "YhfI", "result": "exhibited a strong preference for cAMP/cGMP over cCMP/cUMP cleavage"}]}
{"molecule": "NC(=O)c1ccc[n+]([C@@H]2O[C@H](COP(=O)(O)OP(=O)(O)OC[C@H]3O[C@@H](n4cnc5c4ncn4ccnc54)[C@H](O)[C@@H]3O)[C@@H](O)[C@H]2O)c1", "note": "[ε-NAD]", "values": [{"measurement": "fluorescent NADase activation assay", "setting": "PycTIR; cUMP as activator", "result": "Release of fluorescent substrate from an NAD^+ analogue incubated with the Pycsar effector PycTIR"}]}
{"molecule": "O=c1ccn([C@@H]2O[C@@H]3COP(=O)(O)O[C@H]3[C@H]2O)c(=O)[nH]1", "note": "[cUMP]", "values": [{"measurement": "fluorescent NADase activation assay", "setting": "PycTIR; activator", "result": "cUMP-dependent activation of the Pycsar NADase effector PycTIR"}]}
{"molecule": "Apyc1 from the phage Bsp38 (enzyme, Anti-Pycsar protein Apyc1 (MBL-fold class II phosphodiesterase) of phage Bsp38; The SUMO2 tag was cleaved with SENP2; also called Bsp38 Apyc1; source: E. coli BL21(DE3) RIL, purified (Ni-NTA, Superdex 75 SEC); not shown: 6×His-SUMO2 or 6×His-MBP-SUMO2, N-terminal, cleaved) MLHTTQIRMVGTGSAFSKKFYNNSALVTFTNGYNLLIDCGHSVPKGLHDADIPLESIDGILITHTHADHIGGLEEVALYNKFVLGGRKIDLLVPNTLVESLWENSLKGGLRYSDTYDDLSLSDYFTVRSLKTFTSGAARTQLEENIAIKLYPTFHVSHMASYAVGLEDRGEDKVFYSSDTIFDEYLIDYALTYSWVFHDCQFFTGGVHASLDELLNYIPEEDQDRVFLMHYGDNMEDFFTKTGRMRFALQGRTYIL", "values": [{"measurement": "stoichiometry N", "setting": "[1]", "result": 2}]}
{"molecule": "Paenibacillus J14 Apyc1 (enzyme, selenomethionine-labelled, Apyc1 homologue (MBL-fold class II phosphodiesterase) of Paenibacillus J14, GenBank WP_028539944.1; Crystallised with a hydrolysis-resistant phosphorothioate analogue of cAMP; also called P. J14 Apyc1; Paenibacillus Apyc1; source: E. coli BL21(DE3) RIL, selenomethionine-labelled, purified (Ni-NTA, Superdex 75 SEC); not shown: 6×His-SUMO2 or 6×His-MBP-SUMO2, N-terminal, cleaved) ALRLQMLGTGGAFAKKYFNNNALLYAGDFTLLIDCGITAPLALHTIGKSVEEIDAVLITHIHGDHVGGLEELAFRRKFGSGRKPILYIAENLVEPLWENTLKGGLSQDGVIHSLNDVFDVRLLKESEPAQLAPELKVELIRTPHIPGKPSYSLYINDEIFYSADMTFEPELLMRLVRERGCRRIFHEVQLTGKGEVHTTLQELLSLPTEIQSQILLKHYSDDMESFRGATGNMDFLRQHEVYTL", "values": [{"measurement": "stoichiometry N", "setting": "[1]", "result": 2}]}
{"molecule": "Paenibacillus xerothermodurans Apyc1 (enzyme, Apyc1 homologue (MBL-fold class II phosphodiesterase) of Paenibacillus xerothermodurans; also called P. xerothermodurans Apyc1; Paenibacillus Apyc1; source: E. coli BL21(DE3) RIL, purified (Ni-NTA, Superdex 75 SEC); not shown: 6×His-SUMO2 or 6×His-MBP-SUMO2, N-terminal, cleaved) SLQIQMIGTGSAFAKKFYNNNALVKCNGFQLLIDCGVTAPRALHELGVPITGIDGILITHIHADHVGGIEEFAFRLKYKYGMTIKLFVPAALVNPLWDHSLRGGLENKAEGLEQLADYFDVVALEEAVVHEIHPGLTVELVRSQHIAGKASYSLLLNNLLFYSSDARFNYAQLVELSTSGRCKYILHDCQLAEPAAVHATLNELLTLPEAVQEMIMLMHYDDEMEQFIGKSGKMSFMQQHKTYSFTEAT", "values": [{"measurement": "stoichiometry N", "setting": "[1]", "result": 2}]}
